By fraction unbound is commonly meant the share of the substance not bound to proteins or other matrix.

This is an account of results in publication PMC12089418, “Quantifying VMAT2 target occupancy at effective valbenazine doses and comparing to a novel VMAT2 inhibitor: a translational PET study” (Neuropsychopharmacology, 2025).

The subject of one data set is other targets. The arrangement: method as in PMID 28776237, PMID 28404690, PMID 29680151. The settings on record: cited from earlier work.
The nature of data set [1]: Plasma protein binding by equilibrium dialysis, cynomolgus monkey plasma. The settings on record: both sexes, pooled plasma, read-out: fraction unbound in plasma (fu_p). The format is in vitro ADME, cynomolgus monkeys. For orientation: In equilibrium dialysis free small molecules cross a membrane that holds back macromolecules.
The target of data set [2] is T1, VMAT2 (Macaca fascicularis, UniProt A0A2K5UVB8). Further details: method as in PMID 32122751. The settings on record: bolus administration; radioligand [+]-α-[11C]dHTBZ; cited from earlier work.
Target sequence in this assay (A0A2K5UVB8 1-517): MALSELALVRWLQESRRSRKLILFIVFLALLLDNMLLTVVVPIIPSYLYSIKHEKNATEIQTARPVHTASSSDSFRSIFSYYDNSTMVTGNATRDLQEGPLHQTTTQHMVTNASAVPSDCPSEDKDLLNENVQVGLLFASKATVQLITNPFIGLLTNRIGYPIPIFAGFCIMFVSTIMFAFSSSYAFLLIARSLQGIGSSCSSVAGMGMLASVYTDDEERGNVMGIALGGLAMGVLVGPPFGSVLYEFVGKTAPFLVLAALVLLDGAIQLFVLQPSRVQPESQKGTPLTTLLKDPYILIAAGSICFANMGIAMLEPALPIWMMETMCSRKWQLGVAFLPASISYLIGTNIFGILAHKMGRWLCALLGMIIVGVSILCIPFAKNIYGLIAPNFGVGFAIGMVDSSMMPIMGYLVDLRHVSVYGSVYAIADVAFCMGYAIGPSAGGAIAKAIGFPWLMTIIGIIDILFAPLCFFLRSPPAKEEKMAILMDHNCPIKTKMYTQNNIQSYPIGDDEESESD
Data set [3] concerns VMAT2. The settings on record: cited from earlier work.
For data set [4], the target named is T2, VMAT2 (Rattus norvegicus, UniProt Q01827).
T2 construct: from tissue; host or cells: rats dosed in vivo; tissue and read-out method not described
T2 sequence (Q01827 whole entry): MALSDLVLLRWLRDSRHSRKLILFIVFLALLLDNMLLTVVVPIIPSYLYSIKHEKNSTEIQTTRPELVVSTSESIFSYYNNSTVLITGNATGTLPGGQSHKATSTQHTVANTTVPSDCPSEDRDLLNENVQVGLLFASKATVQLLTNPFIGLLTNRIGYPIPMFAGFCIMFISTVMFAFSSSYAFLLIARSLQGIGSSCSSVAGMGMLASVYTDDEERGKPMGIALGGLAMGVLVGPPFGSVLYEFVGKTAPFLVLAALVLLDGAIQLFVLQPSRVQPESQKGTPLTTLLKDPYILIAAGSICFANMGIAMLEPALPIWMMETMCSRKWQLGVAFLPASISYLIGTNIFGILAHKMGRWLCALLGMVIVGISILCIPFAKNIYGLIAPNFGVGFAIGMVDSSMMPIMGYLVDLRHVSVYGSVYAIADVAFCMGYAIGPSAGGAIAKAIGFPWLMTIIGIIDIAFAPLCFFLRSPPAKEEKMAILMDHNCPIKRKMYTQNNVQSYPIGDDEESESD
As to the kind of experiment: Rat NBI-98782 PK-%TO study. The settings on record: Data on file. Type of data set: in vivo.

Data set [5] concerns the target T1, VMAT2. The experiment in a line: [18F]AV-133 baseline PET test-retest. Type of data set: in vivo, cynomolgus macaques. The settings on record: 2 NHPs, caudate and putamen, baseline scans ~5 months apart. Here is the method: Test-retest variability of BPND in the caudate and putamen were calculated as3 TRTV%=100xBPND1−BPND2/(BPND1+BPND2)/2
Target sequence in this assay (A0A2K5UVB8 entry or part of it): as the sequence (A0A2K5UVB8 1-517) above
In data set [6] the test system is chorea associated with Huntington’s Disease. Further details: method as in PMID 37210099. The settings on record: valbenazine 80 mg; cited from earlier work.
For data set [7], the target named is VMAT2 (Homo sapiens, UniProt Q05940). As to the kind of experiment: Estimated human VMAT2 %TO from human PK and NHP PET free EC50. The format is in vivo. Further details: from tissue; host or cells: brain of healthy male volunteers (caudate, putamen). The settings on record: for VMAT2 %TO at Cavg / VMAT2 %TO at Cmax / VMAT2 %TO at Ctrough: from free NBI-98782 and NHP PET EC50. How it is done: Valbenazine human plasma exposure metrics in patients were estimated with a population pharmacokinetic (PK) analysis and plasma protein binding (PPB) data. […] These steady-state concentrations, in conjunction with free EC50 from NHP PET for blocking compounds was used to estimate %TO in humans. Plasma concentrations of NBI-750142 following 60 mg BID dose were estimated using plasma concentrations following a single oral dose of 60 mg NBI-750142 using the principle of superposition.
Chain of VMAT2 (Homo sapiens, UniProt Q05940) (Q05940 whole entry): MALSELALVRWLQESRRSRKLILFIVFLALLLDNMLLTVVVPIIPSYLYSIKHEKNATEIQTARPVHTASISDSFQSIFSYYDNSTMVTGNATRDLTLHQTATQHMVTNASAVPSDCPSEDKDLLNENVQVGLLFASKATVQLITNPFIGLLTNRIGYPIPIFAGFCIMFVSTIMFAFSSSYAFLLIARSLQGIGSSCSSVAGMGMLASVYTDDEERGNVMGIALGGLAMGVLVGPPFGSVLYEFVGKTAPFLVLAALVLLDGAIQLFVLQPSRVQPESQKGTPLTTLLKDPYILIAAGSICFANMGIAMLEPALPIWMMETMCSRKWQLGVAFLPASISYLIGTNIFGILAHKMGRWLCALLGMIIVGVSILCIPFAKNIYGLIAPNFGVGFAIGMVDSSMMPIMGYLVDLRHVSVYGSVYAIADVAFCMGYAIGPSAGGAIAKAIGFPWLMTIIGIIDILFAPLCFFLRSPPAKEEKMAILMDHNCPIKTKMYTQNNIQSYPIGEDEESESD

A further data set relates to TD patients. The arrangement: method as in PMID 28320223. The settings on record: 6 weeks, cited from earlier work.

Molecules are shown by their SMILES. Like-named read-outs stand apart in the source and are kept apart here. Where only a bound is given, the exact number is not on record here.

As to `COc1cc2c(cc1OC)C1CC(O)C(CC(C)C)CN1CC2` (stereo not drawn) [NBI-98782, (+)-α-dHTBZ (dihydrotetrabenazine)], the “inhibition of other targets” value in the data set on other targets is given as “minimal to non-detectable inhibition”. In addition, the fraction unbound in data set [1] was 0.4. Besides, on VMAT2 [2], the “ED50 (dose vs VMAT2 occupancy)” value is 0.055 mg/kg. For the same molecule, the “potency at VMAT2” value with VMAT2 [3] is listed as “nanomolar potency”. Besides, on VMAT2 [4], the “NBI-98782 PK-%TO relationship, valbenazine-dosed vs NBI-98782-dosed rats” value is “nearly identical”.
Turning to `COc1cc2c(cc1OCCC[18F])CCN1C[C@@H](CC(C)C)[C@H](O)C[C@H]21` [[^18F]AV-133], on VMAT2 [5], the “test-retest variability of baseline BPND” value is given as less than 10%.
In the case of `COc1cc2c(cc1OC)[C@H]1C[C@@H](OC(=O)[C@@H](N)C(C)C)[C@H](CC(C)C)CN1CC2` [valbenazine], in data set [6], the “Cohen's d, chorea” value is recorded as 0.9. For the same molecule, the “VMAT2 %TO at Cavg” value on VMAT2 [7] (40 mg VBZ QD) was ~ 80%; at VMAT2 [7] (40 mg VBZ QD, listed as VBZ), 79%; on VMAT2 [7] (80 mg VBZ QD), 89%. Moreover, the “VMAT2 %TO at Cmax” value was 82% on VMAT2 [7] (40 mg VBZ QD) and 91% on VMAT2 [7] (80 mg VBZ QD). Moreover, the “VMAT2 %TO at Ctrough” value on VMAT2 [7] (40 mg VBZ QD) is on record as 73%; at VMAT2 [7] (80 mg VBZ QD), “above 85%”; on VMAT2 [7] (80 mg VBZ QD, listed as VBZ) it was 85%. The “VMAT2 %TO estimations at steady state” value at VMAT2 [7] (80 mg valbenazine daily, Ctrough to Cmax) is ~ 90%. In addition, the “VMAT2 occupancy achieved by once daily valbenazine treatment” value at VMAT2 [7] (40 and 80 mg once daily) is listed as 80–90%. Further, the figures for the “Cohen's d, AIMS score reduction” value in the data set with TD patients (valbenazine 40 mg once daily oral) and in the data set with TD patients (valbenazine 80 mg once daily oral) were 0.5 and 0.9, respectively. The “patients with robust AIMS response (>50% reduction from baseline)” value is on record as 24% in the data set with TD patients (valbenazine 40 mg) and 40% with TD patients (valbenazine 80 mg). Besides, in the data set on VMAT2 [3] (parent compound vs active metabolite), the “potency at VMAT2 relative to NBI-98782 (fold less potent)” value is ~ 40 fold.
